This is an account of results in patent US20250188062A1, “TRIAZINE COMPOUNDS AND METHODS OF MAKING AND USING THE SAME” (Athos Therapeutics, Inc., priority 2021, published 2025).

One data set relates to THP-1 human monocytes. Kind of data set: Cellular assay for anti-inflammatory properties: cytokine ELISA multiplex in LPS-stimulated PMA-differentiated THP-1 macrophages. It counts as cell-based. To be noted: 1 μM, 4 hours before 100 ng/mL LPS for 4 or 24 hours; cytokine protein in media vs LPS+PMA only. The protocol: The anti-inflammatory properties of five JMJD3 inhibitors (99, 92, 93, 98, and 95, in no particularly order) were evaluated in an immune cellular assay targeting key pro-inflammatory cytokines involved in the pathogenesis of multiple autoimmune disease.
Specifically, THP-1 human monocytes were grown in 6-well plates (RPMI 1640+10% FBS+1% P/S). After washing with PBS the THP-1 cells were differentiated into macrophages using 20 nM of phorbol 12-myristate 13-acetate (PMA) for 24 hrs. 99, 92, 93, 98, and 95) (1 μM) were added into the macrophages, which are incubated for 4 hours before the addition of 100 ng/mL lipopolysaccharide (LPS) for either 4 or 24 hours. Next, the macrophages are collected via centrifugation at 1.2K rpm for 5 min and use their media to evaluate cytokine protein levels by using the Bio-rad Cytokine ELISA multiplex assay (cat. No M5000031YV). The supernatants from macrophages treated only with only LPS+PMA were collected and used as negative controls.
Background: An ELISA detects its analyte on a solid surface through an enzyme-linked reagent.

In the next data set the test system is Naïve CD4+ T human cells. Put plainly: Cellular assay for FoxP3 induction activity (qPCR of FoxP3 mRNA). It counts as cell-based. To be noted: CD4+ T cells activated with anti-CD3, IL-2 and TGF-β for 5 days; FoxP3 mRNA by qPCR on day 5; FIG. 3. How it is done:
CD4+CD25+FOXP3+ regulatory T cells (Tregs) suppress pro-inflammatory cells and signals and are critical mediators of tolerance, inhibiting excessive inflammation and autoimmunity. Also, treatment of CD4+ T cells with interleukin 2 (IL-2) and transforming growth factor beta (TGF-β) signaling are important for FOXP3 induction and Treg formation.
Naïve CD4+ T human cells (cat. no 2W-200, Lonza) were cultured and activated with artificial antigen-presenting cells and soluble anti-CD3 (100 ng/ml) in the presence of IL-2 (300 U/ml) and TGF-β (10 ng/ml) for 5 days. On day 3, cells were transfected with an anti-sense RNA against JMJD3 (cat. No 1299001, Thermo) using Lipofectamine 2000 (cat. No 11668027, Thermo). On day 5, RNA was extracted and qPCR analysis was performed to evaluate FoxP3 mRNA levels by using the following primers: F: 5′-TCCACAACATGCGACCCCCTTTCA-3′ and R: 5′-ACAGCCCCCTTCTCGCTCTCCA-3′ having a 217 bp product. All JMJD3 inhibitors (99, 92, 93, 98, and 95) in CD4+ T cells induced 7-fold FoxP3 expression levels, thus moving towards differentiation and formation of Tregs. […] Thus, genetic or pharmacological inhibition of […] will result into FoxP3 activation and induction of Treg formation. Based on this evidence, JMJD3 inhibitors (99, 92, 93, 98, and 95)) could be used in autoimmune diseases where T-regulatory cells have therapeutic potential. There is increasing evidence and literature derived from human clinical studies (Arellano B et al., Regulatory T Cell-based Therapies for Autoimmunity, Discov Med, 22:73-80, 2016).

The target in the next data set is JMJD3 (Homo sapiens, UniProt O15054). Kind of data set: JMJD3 binding assay (Kd, affinity beads, qPCR readout). To be noted: 11-point 3-fold dilution series, 0.9% DMSO, room temperature 1 hour; read-out: JMJD3 Affinity (binding constant, Kd). How it is done: Test compounds were prepared as 111X stocks in 100% DMSO. Kd values are determined using an 11-point 3-fold compound dilution series with three DMSO control points. All compounds for Kd measurements were distributed by acoustic transfer (non-contact dispensing) in 100% DMSO. The compounds were then diluted directly into the assays such that the final concentration of DMSO was 0.9%. All reactions were performed in polypropylene 384-well plate. Each was a final volume of 0.02 ml. The assay plates were incubated at room temperature with shaking for 1 hour and the affinity beads were washed with wash buffer (lx PBS, 0.05% Tween 20). The beads were then re-suspended in elution buffer (lx PBS, 0.05% Tween 20, 0.5 μM non-biotinylated affinity ligand) and incubated at room temperature with shaking for 30 minutes. The kinase concentration in the eluates was measured by qPCR. Binding constants are calculated with a standard dose-response curve using the Hill equation:
The Hill Slope was set to −1. Curves were fitted using a non-linear least square fit with the Levenberg-Marquardt algorithm. The binding data is summarized in Table 2 where A is less than 100 nM, B is 100 to 500 nM, and C is greater than 500 nM.

Data set [1] in a line: Stability under acidic LCMS condition. The class given is physicochemical. The following applies: 0.1% formic acid mobile phase; hydrolyzed —OH product found. How it is done: All reactions were carried out under an atmosphere of argon. Reagents and solvents were used from commercial sources without additional purification. Hydrogenation reactions were run under a balloon. Microwave reactions were performed using a CEM Discover SP microwave synthesizer. Sample purification was conducted on a Buchi Pureflash with ELSD purification system using pre-packed commercially available silica gel columns. Thin layer chromatography (TLC) was performed on aluminium plates using Merck Kiesegel 60 F254 (230-400 mesh) fluorescent treated silica which were visualized under ultraviolet light (254 nm), or by staining with potassium permanganate or ninhydrin solution as appropriate. All Nuclear Magnetic Resonance (NMR) spectra were acquired on a Bruker Avance III HD 400 MHz NMR spectrometer; chemical shifts are reported in ppm (δ). […] All compounds purity was analyzed on Agilent 1260 Infinity II Lab LC Series HPLC (1260 Quatpum, 1260 vial autosampler, ICC column oven, 1260 DAD WR detector). […] All compounds that were evaluated in biological assay had >90% and animal study had >95% purity. […]

As a reminder, the Kd is the free concentration of one partner at which half of the binding sites on the other are occupied at equilibrium, for simple one-to-one binding.

Chain of JMJD3 (O15054 whole entry, species assumed): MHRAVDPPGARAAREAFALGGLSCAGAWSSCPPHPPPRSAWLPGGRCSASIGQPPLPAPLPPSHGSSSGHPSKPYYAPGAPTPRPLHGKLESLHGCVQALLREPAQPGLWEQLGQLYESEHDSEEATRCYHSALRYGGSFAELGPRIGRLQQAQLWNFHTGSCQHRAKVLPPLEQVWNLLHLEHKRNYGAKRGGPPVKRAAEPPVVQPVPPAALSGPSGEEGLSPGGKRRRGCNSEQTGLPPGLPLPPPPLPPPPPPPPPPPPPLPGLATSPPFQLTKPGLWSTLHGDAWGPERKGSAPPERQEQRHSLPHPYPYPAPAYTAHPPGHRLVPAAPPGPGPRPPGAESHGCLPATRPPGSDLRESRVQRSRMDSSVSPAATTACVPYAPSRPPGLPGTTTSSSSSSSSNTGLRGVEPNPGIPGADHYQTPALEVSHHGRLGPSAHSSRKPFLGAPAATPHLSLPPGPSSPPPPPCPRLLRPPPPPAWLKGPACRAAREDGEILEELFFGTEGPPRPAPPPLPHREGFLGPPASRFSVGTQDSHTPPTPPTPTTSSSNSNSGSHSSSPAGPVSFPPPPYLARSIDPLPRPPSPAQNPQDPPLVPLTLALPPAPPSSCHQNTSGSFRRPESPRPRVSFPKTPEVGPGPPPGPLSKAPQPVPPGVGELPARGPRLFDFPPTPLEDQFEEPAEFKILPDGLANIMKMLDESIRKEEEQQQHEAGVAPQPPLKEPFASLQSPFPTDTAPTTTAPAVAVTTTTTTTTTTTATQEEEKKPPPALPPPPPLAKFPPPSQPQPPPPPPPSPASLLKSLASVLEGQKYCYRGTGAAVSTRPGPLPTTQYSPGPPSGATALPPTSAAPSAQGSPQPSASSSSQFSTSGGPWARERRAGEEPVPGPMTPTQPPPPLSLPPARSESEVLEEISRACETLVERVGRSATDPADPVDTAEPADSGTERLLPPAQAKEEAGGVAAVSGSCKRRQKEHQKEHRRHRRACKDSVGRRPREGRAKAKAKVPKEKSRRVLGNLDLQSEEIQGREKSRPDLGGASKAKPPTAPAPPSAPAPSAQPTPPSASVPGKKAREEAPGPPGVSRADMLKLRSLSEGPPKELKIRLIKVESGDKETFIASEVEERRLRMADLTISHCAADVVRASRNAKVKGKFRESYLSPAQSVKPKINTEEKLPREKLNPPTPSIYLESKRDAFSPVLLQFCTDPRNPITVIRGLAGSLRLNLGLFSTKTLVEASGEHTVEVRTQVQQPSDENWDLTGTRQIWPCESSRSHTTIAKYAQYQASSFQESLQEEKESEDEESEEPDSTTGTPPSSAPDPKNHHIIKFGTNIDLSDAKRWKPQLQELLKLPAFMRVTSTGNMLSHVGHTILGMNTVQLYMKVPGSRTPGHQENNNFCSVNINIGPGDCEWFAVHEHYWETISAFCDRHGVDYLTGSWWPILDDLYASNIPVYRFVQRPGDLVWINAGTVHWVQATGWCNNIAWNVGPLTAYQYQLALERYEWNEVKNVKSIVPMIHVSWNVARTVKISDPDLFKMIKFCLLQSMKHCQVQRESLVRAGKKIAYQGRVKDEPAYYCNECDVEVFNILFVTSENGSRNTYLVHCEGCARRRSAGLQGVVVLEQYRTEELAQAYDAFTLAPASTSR

Take `c1ccc2c(c1)ccn2-c1nc(OC2CCCC2)nc(-n2cccn2)n1` [Compound 95, 1-(4-(Cyclopentyloxy)-6-(1H-pyrazol-1-yl)-1,3,5-triazin-2-yl)-1H-indole]: in the data set on THP-1 human monocytes, the “suppression of TNF-alpha (TNFA)” value is “suppression”, the “suppression of interleukin 1beta (IL1B)” value is reported as “suppression”, the “suppression of interleukin 5 (IL5)” value is reported as “suppression” and the “suppression of interleukin 6 (IL6)” value is reported as “suppression”. In addition, in the data set on THP-1 human monocytes, the “suppression of interleukin 8 (IL8)” value is recorded as “suppression” and the “suppression of interleukin 13 (IL13)” value is “suppression”. Besides, the “FoxP3 expression levels (induction)” value in the data set on Naïve CD4+ T human cells was 7 fold. Moreover, the Kd on JMJD3 is under 100 nM. The “stability under acidic LCMS condition” value in data set [1] is given as “unstable”.
